{"source": "ChEMBL document CHEMBL2073809", "about": "“Interrelationship between substrates and inhibitors of human CYP3A and P-glycoprotein” (Pharm Res, 1999)", "key": {"ABCB1 (P-glycoprotein) [1]": {"target": "T1, ABCB1 (P-glycoprotein) (Homo sapiens, UniProt P08183)", "T1 sequence (P08183 whole entry)": "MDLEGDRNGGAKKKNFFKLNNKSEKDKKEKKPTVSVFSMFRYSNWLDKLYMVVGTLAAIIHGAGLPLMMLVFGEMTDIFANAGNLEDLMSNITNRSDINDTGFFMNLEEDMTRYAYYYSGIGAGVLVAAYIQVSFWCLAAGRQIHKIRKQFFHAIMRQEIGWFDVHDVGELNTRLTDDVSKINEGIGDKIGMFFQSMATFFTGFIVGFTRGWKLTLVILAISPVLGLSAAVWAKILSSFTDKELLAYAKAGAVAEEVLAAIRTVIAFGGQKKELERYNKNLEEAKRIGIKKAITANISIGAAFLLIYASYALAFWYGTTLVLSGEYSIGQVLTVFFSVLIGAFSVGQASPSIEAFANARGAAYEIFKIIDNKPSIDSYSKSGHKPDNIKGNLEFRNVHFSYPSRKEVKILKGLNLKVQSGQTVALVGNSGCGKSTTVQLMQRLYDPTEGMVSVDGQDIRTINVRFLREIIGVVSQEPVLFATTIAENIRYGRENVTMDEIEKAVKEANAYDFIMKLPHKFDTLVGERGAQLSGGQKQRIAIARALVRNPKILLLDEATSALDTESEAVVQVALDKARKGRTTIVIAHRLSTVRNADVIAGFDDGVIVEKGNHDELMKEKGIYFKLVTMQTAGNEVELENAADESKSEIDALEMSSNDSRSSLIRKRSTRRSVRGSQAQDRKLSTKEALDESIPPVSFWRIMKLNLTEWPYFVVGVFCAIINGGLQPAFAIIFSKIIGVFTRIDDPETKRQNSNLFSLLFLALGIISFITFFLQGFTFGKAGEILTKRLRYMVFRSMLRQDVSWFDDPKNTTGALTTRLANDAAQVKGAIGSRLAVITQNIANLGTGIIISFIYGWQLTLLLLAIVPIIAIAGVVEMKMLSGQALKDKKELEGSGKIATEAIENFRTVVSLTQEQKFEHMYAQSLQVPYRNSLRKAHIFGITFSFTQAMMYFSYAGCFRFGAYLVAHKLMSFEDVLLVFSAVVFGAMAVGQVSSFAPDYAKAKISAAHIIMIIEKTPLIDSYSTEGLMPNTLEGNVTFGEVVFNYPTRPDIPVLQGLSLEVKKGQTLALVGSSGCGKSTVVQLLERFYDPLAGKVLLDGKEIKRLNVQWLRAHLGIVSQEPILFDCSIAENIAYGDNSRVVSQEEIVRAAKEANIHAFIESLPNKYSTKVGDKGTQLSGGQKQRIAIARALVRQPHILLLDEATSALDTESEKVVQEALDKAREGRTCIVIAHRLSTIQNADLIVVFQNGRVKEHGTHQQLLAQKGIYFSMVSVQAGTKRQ", "assay": "TP_TRANSPORTER: inhibition of Digoxin transepithelial transport (basal to apical)(Digoxin: 5 uM, 6beta-hydroxycortisol: 100 uM) in Caco-2 cells", "assay_type": "functional, cell-based", "conditions": "Caco-2, probe digoxin"}, "ABCB1 (P-glycoprotein) [2]": {"target": "T1, ABCB1 (P-glycoprotein)", "assay": "TP_TRANSPORTER: inhibition of Digoxin transepithelial transport (basal to apical) (Digoxin: 5 uM, S-mephenytoin: 100 uM) in Caco-2 cells", "assay_type": "functional, cell-based", "conditions": "Caco-2, probe digoxin"}, "[3]": {"target": "T2, ATP-dependent translocase ABCB1 (Homo sapiens, UniProt P08183)", "T2 sequence (P08183 whole entry)": "as above", "assay": "TP_TRANSPORTER: inhibition of Digoxin transepithelial transport (basal to apical)(Digoxin: 5 uM, 1-hydroxymidazolam: 100 uM) in Caco-2 cells", "assay_type": "functional, cell-based", "conditions": "caco-2, 100 µM"}, "[4]": {"target": "T2, ATP-dependent translocase ABCB1", "assay": "TP_TRANSPORTER: transepithelial transport (basal to apical) in MDR1-expressing LLC-PK1 cells", "assay_type": "functional, cell-based", "conditions": "pig"}, "ABCB1 (P-glycoprotein) [5]": {"target": "T1, ABCB1 (P-glycoprotein)", "assay": "TP_TRANSPORTER: inhibition of Digoxin transepithelial transport (basal to apical) (Digoxin: 5 uM, Erythromycin: 100 uM) in Caco-2 cells", "assay_type": "functional, cell-based", "conditions": "Caco-2, probe digoxin"}, "ABCB1 (P-glycoprotein) [6]": {"target": "T1, ABCB1 (P-glycoprotein)", "assay": "TP_TRANSPORTER: inhibition of Digoxin transepithelial transport (basal to apical) (Digoxin: 5 uM, Lovastatin: 100 uM) in Caco-2 cells", "assay_type": "functional, cell-based", "conditions": "Caco-2, probe digoxin"}, "ABCB1 (P-glycoprotein) [7]": {"target": "T1, ABCB1 (P-glycoprotein)", "assay": "TP_TRANSPORTER: inhibition of Digoxin transepithelial transport (basal to apical)(Digoxin: 5 uM, Midazolam: 100 uM) in Caco-2 cells", "assay_type": "functional, cell-based", "conditions": "Caco-2, probe digoxin"}, "ABCB1 (P-glycoprotein) [8]": {"target": "T1, ABCB1 (P-glycoprotein)", "assay": "TP_TRANSPORTER: inhibition of Digoxin transepithelial transport (basal to apical)(Digoxin: 5 uM, Tamoxifen: 100 uM) in Caco-2 cells", "assay_type": "functional, cell-based", "conditions": "Caco-2, probe digoxin"}, "ABCB1 (P-glycoprotein) [9]": {"target": "T1, ABCB1 (P-glycoprotein)", "assay": "TP_TRANSPORTER: inhibition of Digoxin transepithelial transport (basal to apical)(Digoxin: 5 uM, Terfenadine: 10 uM) in Caco-2 cells", "assay_type": "functional, cell-based", "conditions": "Caco-2, probe digoxin"}, "[10]": {"target": "T3, ATP-dependent translocase ABCB1 (Mus musculus, UniProt P21447)", "T3 sequence (P21447 whole entry)": "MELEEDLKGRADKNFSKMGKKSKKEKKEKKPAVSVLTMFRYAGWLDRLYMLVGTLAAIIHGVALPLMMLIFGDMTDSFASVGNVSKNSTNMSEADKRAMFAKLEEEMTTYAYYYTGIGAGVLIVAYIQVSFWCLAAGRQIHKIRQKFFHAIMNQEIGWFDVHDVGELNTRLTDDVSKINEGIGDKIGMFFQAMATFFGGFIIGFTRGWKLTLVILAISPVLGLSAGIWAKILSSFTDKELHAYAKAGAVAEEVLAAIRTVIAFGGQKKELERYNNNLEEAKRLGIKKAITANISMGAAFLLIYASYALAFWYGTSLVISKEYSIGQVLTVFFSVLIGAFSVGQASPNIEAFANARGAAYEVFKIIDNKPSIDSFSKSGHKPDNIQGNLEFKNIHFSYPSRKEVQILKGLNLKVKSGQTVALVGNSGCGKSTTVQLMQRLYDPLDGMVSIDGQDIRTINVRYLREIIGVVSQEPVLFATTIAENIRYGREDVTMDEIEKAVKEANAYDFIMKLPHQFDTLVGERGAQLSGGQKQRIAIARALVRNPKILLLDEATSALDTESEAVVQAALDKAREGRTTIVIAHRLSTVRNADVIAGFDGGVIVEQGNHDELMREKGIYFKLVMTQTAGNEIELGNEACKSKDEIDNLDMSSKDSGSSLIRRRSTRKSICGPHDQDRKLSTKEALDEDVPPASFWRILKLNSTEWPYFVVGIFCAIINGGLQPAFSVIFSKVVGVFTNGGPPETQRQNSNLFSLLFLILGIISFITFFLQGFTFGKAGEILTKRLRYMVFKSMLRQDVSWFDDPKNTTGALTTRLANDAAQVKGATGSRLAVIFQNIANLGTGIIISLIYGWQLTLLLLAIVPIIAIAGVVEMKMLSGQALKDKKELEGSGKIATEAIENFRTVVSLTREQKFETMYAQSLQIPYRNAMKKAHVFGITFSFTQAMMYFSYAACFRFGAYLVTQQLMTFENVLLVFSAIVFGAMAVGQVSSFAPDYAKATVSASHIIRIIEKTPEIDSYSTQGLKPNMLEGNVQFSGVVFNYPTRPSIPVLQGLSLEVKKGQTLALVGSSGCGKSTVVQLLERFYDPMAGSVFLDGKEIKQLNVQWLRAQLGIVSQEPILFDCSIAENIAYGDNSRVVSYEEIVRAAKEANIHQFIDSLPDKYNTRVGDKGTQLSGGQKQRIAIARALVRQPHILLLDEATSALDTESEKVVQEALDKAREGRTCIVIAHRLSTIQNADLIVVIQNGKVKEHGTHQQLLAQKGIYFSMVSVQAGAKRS", "assay": "TP_TRANSPORTER: no change in plasma concentration in mdr1a(-/-) mouse", "assay_type": "functional, organism-based", "conditions": "in vivo"}, "[11]": {"target": "T3, ATP-dependent translocase ABCB1", "assay": "TP_TRANSPORTER: no change in liver concentration in mdr1a(-/-) mouse", "assay_type": "functional, organism-based", "conditions": "in vivo"}, "[12]": {"target": "T3, ATP-dependent translocase ABCB1", "assay": "TP_TRANSPORTER: no change in kidney concentration in mdr1a(-/-) mouse", "assay_type": "functional, organism-based", "conditions": "in vivo"}}, "data": [{"compound": "C[C@]12CCC(=O)C=C1[C@H](O)C[C@@H]1[C@@H]2[C@@H](O)C[C@@]2(C)[C@H]1CC[C@]2(O)C(=O)CO", "values": [{"measurement": "inhibition at 100 µM", "setting": "ABCB1 (P-glycoprotein) [1]", "result": 57, "unit": "%"}]}, {"compound": "CC[C@@]1(c2ccccc2)NC(=O)N(C)C1=O", "values": [{"measurement": "inhibition at 100 µM", "setting": "ABCB1 (P-glycoprotein) [2]", "result": 42, "unit": "%"}]}, {"compound": "OCc1ncc2n1-c1ccc(Cl)cc1C(c1ccccc1F)=NC2", "note": "[ALPHA-HYDROXY-MIDAZOLAM]", "values": [{"measurement": "Activity", "setting": "[3]", "result": 63}]}, {"compound": "N=C(N)N1CCc2ccccc2C1", "note": "[DEBRISOQUIN]", "values": [{"measurement": "Activity", "setting": "[4]", "result": "substrate [+]"}]}, {"compound": "CC[C@H]1OC(=O)[C@H](C)[C@@H](O[C@H]2C[C@@](C)(OC)[C@@H](O)[C@H](C)O2)[C@H](C)[C@@H](O[C@@H]2O[C@H](C)C[C@H](N(C)C)[C@H]2O)[C@](C)(O)C[C@@H](C)C(=O)[C@H](C)[C@@H](O)[C@]1(C)O", "note": "[ERYTHROMYCIN]", "values": [{"measurement": "inhibition at 100 µM", "setting": "ABCB1 (P-glycoprotein) [5]", "result": 101, "unit": "%"}]}, {"compound": "CC[C@H](C)C(=O)O[C@H]1C[C@@H](C)C=C2C=C[C@H](C)[C@H](CC[C@@H]3C[C@@H](O)CC(=O)O3)[C@H]21", "note": "[LOVASTATIN]", "values": [{"measurement": "inhibition at 100 µM", "setting": "ABCB1 (P-glycoprotein) [6]", "result": 65, "unit": "%"}]}, {"compound": "Cc1ncc2n1-c1ccc(Cl)cc1C(c1ccccc1F)=NC2", "note": "[MIDAZOLAM]", "values": [{"measurement": "inhibition at 100 µM", "setting": "ABCB1 (P-glycoprotein) [7]", "result": 74, "unit": "%"}, {"measurement": "Activity", "setting": "[4]", "result": "is not a substrate [-]"}]}, {"compound": "COC(=O)C1=C(C)NC(C)=C(C(=O)OC)C1c1ccccc1[N+](=O)[O-]", "note": "[NIFEDIPINE]", "values": [{"measurement": "Activity", "setting": "[4]", "result": "is not a substrate [-]"}]}, {"compound": "CC/C(=C(\\c1ccccc1)c1ccc(OCCN(C)C)cc1)c1ccccc1", "note": "[TAMOXIFEN]", "values": [{"measurement": "inhibition at 100 µM", "setting": "ABCB1 (P-glycoprotein) [8]", "result": 86, "unit": "%"}]}, {"compound": "CC(C)(C)c1ccc(C(O)CCCN2CCC(C(O)(c3ccccc3)c3ccccc3)CC2)cc1", "note": "(centres undefined) [TERFENADINE]", "values": [{"measurement": "inhibition at 10 µM", "setting": "ABCB1 (P-glycoprotein) [9]", "result": 112, "unit": "%"}]}, {"compound": "IVERMECTIN", "values": [{"measurement": "Activity", "setting": "[10]", "result": "is not a substrate [-]"}, {"measurement": "Activity", "setting": "[11]", "result": "is not a substrate [-]"}, {"measurement": "Activity", "setting": "[12]", "result": "is not a substrate [-]"}]}]}
